# Assay results taken from US8299052B2, “Pharmaceutical compositions and methods for improved bacterial eradication” (Shionogi Inc., priority 2006, dated 2012).
# Read-outs that look alike come from different tables or passages of the source. Marks after values point to notes of the source that are not given here.
# What was measured:
# [1] = system: Streptococcus pyogenes; assay: MIC-90 of penicillin VK for Streptococcus pyogenes; format: cell-based; conditions: where study did not report MIC, assumed equal to MIC determined in Applicants' Phase III trial
# Description: The information in Table 1 was collected from several studies published in the literature. Information such as drug, regimen, Days Tx and Eradication can be taken directly from the literature articles. Information such as the MIC will often have been determined as part of the study and may be reported in the article, but in many cases it may not have been determined or reported.
# [2] = system: Streptococcus pyogenes; assay: Daily T>MIC and Total T>MIC calculated from pharmacokinetic model (WinNonlin) plasma profiles
# Protocol: The Daily T>MIC must also be calculated for each different regimen, and at the relevant MIC. This information was not presented in any of the articles and so it was calculated by Applicants. The Daily T>MIC is calculated for each regimen by creating a plasma profile from pharmacokinetic data published in the literature. Prior to creating the plasma profile a pharmacokinetic model is developed from plasma profiles from one or more doses reported in the literature. […] The models are industry standard compartmental models, generated with WinNonlin, a common program used in the pharmaceutical industry for pharmacokinetic analysis and modeling. Once the Daily T>MIC for each regimen has been calculated, the Total T>MIC is calculated by multiplying the Daily T>MIC by the Duration of Therapy (Days Tx in the table). Thus a composite parameter, Total T>MIC, is constructed that includes both factors relevant to eradication of Streptococcus pyogenes by a given regimen. The equation can then be used to determine the Total T>MIC required to achieve eradication rates ≧85% (or any other desired eradication rate).
# [3] = system: Streptococcus pyogenes; conditions: Omnicef label, Tack et al, AAC 1998; cited from earlier work
# [4] = system: Streptococcus pyogenes; conditions: cited from earlier work
smiles,measurement,setting,value
"CC1(C)S[C@@H]2[C@H](NC(=O)COc3ccccc3)C(=O)N2[C@H]1C(=O)O [Pen VK, penicillin VK]",MIC90,[1],0.015 µg/mL
same,Daily T > MIC,"[2]; 250 QID, MIC-90 0.015",55.30%
same,Daily T > MIC,"[2]; 250 QID, MIC-90 0.03",46.40%
same,Daily T > MIC,"[2]; 250 TID, MIC-90 0.015",39.29%
same,Daily T > MIC,"[2]; 500 TID, MIC-90 0.015",48.10%
same,Daily T > MIC,"[2]; 600 TID, MIC-90 0.015",49.80%
same,Daily T > MIC,"[2]; 750 QD, MIC-90 0.015",17.30%
same,Daily T > MIC,"[2]; 800 BID, MIC-90 0.015",35.00%
same,MIC-90,[3],0.03* μg/mL
same,% Erad,"[4]; 250 QID, Days Tx 10, MIC-90 0.03, Omnicef label, Tack et al, AAC 1998",82%
same,% Erad,"[4]; 250 QID, Days Tx 10, McCarty 1993",100%
same,% Erad,"[4]; 250 QID, Days Tx 10, Mullen 992",85.5%
same,% Erad,"[4]; 250 TID, Days Tx 5, Gerber et al, AJDC 1987",92%
same,% Erad,"[4]; 250 TID, Days Tx 10, Gerber et al, AJDC 1987",96%
same,% Erad,"[4]; 500 TID, Days Tx 0 (spontaneous eradication), Zwart et al. BMJ 2000",7%
same,% Erad,"[4]; 500 TID, Days Tx 3, Zwart et al, BMJ 2000",41%
same,% Erad,"[4]; 500 TID, Days Tx 7, Zwart et al, BMJ 2000",72%
same,% Erad,"[4]; 500 TID, Days Tx 10, Ketek SBA, Norrby et al, Scand J Infect Dis 2001",89%
same,% Erad,"[4]; 600 TID, Days Tx 10, Carbon et al, J Antimicrob Chemother 1995",86%
same,% Erad,"[4]; 750 QD, Days Tx 10, Gerber et al, AJDC 1989",82%
same,% Erad,"[4]; 800 BID, Days Tx 5, Stromberg et al, Scand J Infect Dis 1988",73%
same,% Erad,"[4]; 800 BID, Days Tx 10, Stromberg et al, Scand J Infect Dis 1988",94%
